# Legend:
# Test in all cases: Chemoproteomic competition pulldown assay (co-competed CoREST partner)
# Format in all cases: binding
# KDM1A = system: KDM1A
# Protocol: (§1) To identify proteins directly bound by lipoic acid, we employed a chemoproteomic competition assay. Briefly, (R/S)-LA was immobilized on sepharose beads via an amidation reaction to form an affinity matrix (abbreviated as iL; Fig. 1a). This affinity matrix can be incubated with cell lysate to pull down potential LA or LM target proteins and identify these targets via bottom-up proteomics. In a competition assay, free LA or LM were incubated with lysate at different concentrations before pulling down and quantifying target proteins. […] (Fig. 1b, see “Methods” for details). […] The lysate buffer used in this assay contains 1 mM DTT to mimic the intracellular reductive milieu and to reduce lipoic acid and LM. […] Additional competition assays performed in lung adenocarcinoma cell A549 lysate also identified HDAC1, HDAC2, and HDAC6 as targets (Supplementary Fig. 1b). Amongst the three cell lines tested, HDACs were the only confidently identified targets across the 1500–3000 proteins quantified in these assays. […] We validated the results by analogous pulldown competition assays using two other affinity matrices prepared via the immobilization of either the HDAC inhibitor Quisinostat (iQ) and an analog of the class IIa HDAC inhibitor Bürli’s 31[14] (iC)[12]. We have previously shown that these affinity matrices specifically bind to the active sites of HDACs and have used them for HDACi selectivity profiling. Indeed, binding of (R/S)-LA and (R/S)-LM to HDAC1, HDAC2, HDAC3, HDAC6, and, to a lesser extent, HDAC8 was confirmed in these assays (Supplementary Fig. 1c, d). No binding to class IIa HDACs or the recently discovered common HDAC inhibitor off-target MBLAC2 was observed (Supplementary Fig. 1e)[12]. […] This observation might reflect electrostatic repulsion between the HDAC10 active site gate-keeper glutamic acid residues[15],[16] and the terminal carboxylic acid of LA.
# (§2) To assess the degree of protein depletion from lysates by the affinity matrix, a second pulldown (PDPD) with fresh beads was performed using the unbound protein fraction from the vehicle control flow through. The beads were washed (1 × 1 mL of lysis buffer without inhibitors and only 0.4% Igepal, 2 × 2 mL of lysis buffer without inhibitors and only 0.2% Igepal), and captured proteins were denatured with 8 M urea buffer, alkylated with 55 mM chloroacetamide and digested with Trypsin according to standard procedures. The resulting peptides were desalted on a C18 filter plate (Sep-Pak® tC18 µElution Plate, Waters), vacuum dried, and stored at −20 °C until LC–MSMS measurement.
# (§3) For the competition assays, relative binding was calculated based on the protein intensity ratio to the DMSO control for every single inhibitor concentration. EC50 values were derived from a four-parameter log-logistic regression with variable slope (constrain: bottom > 0). The obtained EC50 values were multiplied with a protein-dependent correction factor (cf), resulting in the apparent Kd value (Kd^app). The correction factor is determined by calculating the ratio of the protein intensity of two consecutive pulldowns of the vehicle control sample[13]. Targets of the inhibitors were annotated manually according to published procedures[12],[46],[47]. […] Additionally, the number of unique peptides and MSMS counts per condition were taken into account. Positive target binding across several independent experiments performed with different cell lysates further substantiated our confidence for a true positive drug-target binding event.
# HMG20A = system: HMG20A
# Protocol: as §1, §2, §3
# RCOR3 = system: RCOR3
# Protocol: as §1, §2, §3
# GSE1 = system: GSE1
# Protocol: as §1, §2, §3
# RCOR1 = conditions: iL, MV4-11 lysate
# Protocol: as §1, §2, §3
# [1] = iL, MV4-11 lysate, log10 M -3.52288
# [2] = iL, MV4-11 lysate, log10 M -4.52288
# [3] = iL, MV4-11 lysate, log10 M -5.52288
# [4] = iL, MV4-11 lysate, log10 M -6.52288
# [5] = iQ, SW620 lysate, log10 M -3.52288
# [6] = iQ, SW620 lysate, log10 M -4.52288
# [7] = iQ, SW620 lysate, log10 M -5.52288
# [8] = iQ, SW620 lysate, log10 M -6.52288
structure (smiles),measurement,setting,value
"NC(=O)CCCCC1CCSS1 (racemic) [(R/S)-LM, (R/S)-lipoamide]",relative binding vs DMSO,KDM1A; [1],0.06889
same,relative binding vs DMSO,"KDM1A; iL, MV4-11 lysate, log10 M -4",0.07597
same,relative binding vs DMSO,KDM1A; [2],0.1867
same,relative binding vs DMSO,"KDM1A; iL, MV4-11 lysate, log10 M -5",0.4972
same,relative binding vs DMSO,KDM1A; [3],0.6394
same,relative binding vs DMSO,"KDM1A; iL, MV4-11 lysate, log10 M -6",0.7472
same,relative binding vs DMSO,KDM1A; [4],0.8335
same,relative binding vs DMSO,"KDM1A; iL, MV4-11 lysate, log10 M -7",0.9817
same,relative binding vs DMSO,KDM1A; [5],0.09916
same,relative binding vs DMSO,"KDM1A; iQ, SW620 lysate, log10 M -4",0.186
same,relative binding vs DMSO,KDM1A; [6],0.3209
same,relative binding vs DMSO,"KDM1A; iQ, SW620 lysate, log10 M -5",0.6955
same,relative binding vs DMSO,KDM1A; [7],0.8479
same,relative binding vs DMSO,"KDM1A; iQ, SW620 lysate, log10 M -6",0.9866
same,relative binding vs DMSO,KDM1A; [8],0.7392
same,relative binding vs DMSO,"KDM1A; iQ, SW620 lysate, log10 M -7",0.6643
same,relative binding vs DMSO,HMG20A; [1],0.1398
same,relative binding vs DMSO,"HMG20A; iL, MV4-11 lysate, log10 M -4",0.1277
same,relative binding vs DMSO,HMG20A; [2],0.1925
same,relative binding vs DMSO,"HMG20A; iL, MV4-11 lysate, log10 M -5",0.5136
same,relative binding vs DMSO,HMG20A; [3],0.6563
same,relative binding vs DMSO,"HMG20A; iL, MV4-11 lysate, log10 M -6",0.8243
same,relative binding vs DMSO,HMG20A; [4],0.9555
same,relative binding vs DMSO,"HMG20A; iL, MV4-11 lysate, log10 M -7",1.012
same,relative binding vs DMSO,HMG20A; [5],0.03313
same,relative binding vs DMSO,"HMG20A; iQ, SW620 lysate, log10 M -4",0.1846
same,relative binding vs DMSO,HMG20A; [6],0.4151
same,relative binding vs DMSO,"HMG20A; iQ, SW620 lysate, log10 M -5",0.6118
same,relative binding vs DMSO,HMG20A; [7],0.969
same,relative binding vs DMSO,"HMG20A; iQ, SW620 lysate, log10 M -6",0.8792
same,relative binding vs DMSO,HMG20A; [8],0.8032
same,relative binding vs DMSO,"HMG20A; iQ, SW620 lysate, log10 M -7",1.062
same,relative binding vs DMSO,RCOR3; [1],0.04482
same,relative binding vs DMSO,"RCOR3; iL, MV4-11 lysate, log10 M -4",0.03145
same,relative binding vs DMSO,RCOR3; [2],0.2203
same,relative binding vs DMSO,"RCOR3; iL, MV4-11 lysate, log10 M -5",0.5854
same,relative binding vs DMSO,RCOR3; [3],0.7487
same,relative binding vs DMSO,"RCOR3; iL, MV4-11 lysate, log10 M -6",1.237
same,relative binding vs DMSO,RCOR3; [4],1.016
same,relative binding vs DMSO,"RCOR3; iL, MV4-11 lysate, log10 M -7",0.9839
same,relative binding vs DMSO,RCOR3; [5],0.0548
same,relative binding vs DMSO,"RCOR3; iQ, SW620 lysate, log10 M -4",0.3164
same,relative binding vs DMSO,RCOR3; [6],0.4259
same,relative binding vs DMSO,"RCOR3; iQ, SW620 lysate, log10 M -5",0.6647
same,relative binding vs DMSO,RCOR3; [7],0.7959
same,relative binding vs DMSO,"RCOR3; iQ, SW620 lysate, log10 M -6",1.1558
same,relative binding vs DMSO,RCOR3; [8],0.7323
same,relative binding vs DMSO,"RCOR3; iQ, SW620 lysate, log10 M -7",0.9341
same,relative binding vs DMSO,GSE1; [1],0.03208
same,relative binding vs DMSO,"GSE1; iL, MV4-11 lysate, log10 M -4",0.05802
same,relative binding vs DMSO,GSE1; [2],0.1417
same,relative binding vs DMSO,"GSE1; iL, MV4-11 lysate, log10 M -5",0.4933
same,relative binding vs DMSO,GSE1; [3],0.6793
same,relative binding vs DMSO,"GSE1; iL, MV4-11 lysate, log10 M -6",0.8351
same,relative binding vs DMSO,GSE1; [4],0.9265
same,relative binding vs DMSO,"GSE1; iL, MV4-11 lysate, log10 M -7",0.8883
same,relative binding vs DMSO,GSE1; [5],0.1386
same,relative binding vs DMSO,"GSE1; iQ, SW620 lysate, log10 M -4",0.1278
same,relative binding vs DMSO,GSE1; [6],0.3991
same,relative binding vs DMSO,"GSE1; iQ, SW620 lysate, log10 M -5",0.559
same,relative binding vs DMSO,GSE1; [7],0.8469
same,relative binding vs DMSO,"GSE1; iQ, SW620 lysate, log10 M -6",1.003
same,relative binding vs DMSO,GSE1; [8],0.8631
same,relative binding vs DMSO,"GSE1; iQ, SW620 lysate, log10 M -7",0.9076
same,relative binding vs DMSO,RCOR1; log10 M -3.52288,0.05785
same,relative binding vs DMSO,RCOR1; log10 M -4,0.0548
same,relative binding vs DMSO,RCOR1; log10 M -4.52288,0.1462
same,relative binding vs DMSO,RCOR1; log10 M -5,0.4201
same,relative binding vs DMSO,RCOR1; log10 M -5.52288,0.5816
same,relative binding vs DMSO,RCOR1; log10 M -6,0.5592
same,relative binding vs DMSO,RCOR1; log10 M -6.52288,0.7783
same,relative binding vs DMSO,RCOR1; log10 M -7,0.8248

# Reference: PMC10272112 (Nature Communications, 2023)
